In ChEMBL document CHEMBL6092174, “Synthesis and anti-influenza virus activity of substituted dibenzoxepine-based baloxavir derivatives” (Eur J Med Chem, 2024):

system: not listed separately; assay: Cytotoxicity against dog MDCK cells assessed as reduction in cell viability incubated for 2 days by CCK-8 assay; format: toxicity, cell-based, Canis lupus familiaris; details: time 2 day

Point of comparison: O=C1c2c(O)c(=O)ccn2N([C@@H]2c3ccc(F)cc3COc3ccccc32)[C@@H]2COCCN12, CC50 at 48 h 35200 nM. Against it:
- O=C1c2c(O)c(=O)ccn2N([C@H]2c3ccccc3OCc3c(Cl)cccc32)[C@@H]2COCCN12 — 2.3-fold lower, 15600 nM
- O=C1c2c(O)c(=O)ccn2N([C@H]2c3ccccc3COc3c2ccc(F)c3F)[C@@H]2COCCN12 — within 1.5-fold, 33300 nM
- O=C1c2c(O)c(=O)ccn2N([C@@H]2c3ccccc3OCc3c2ccc(F)c3F)[C@@H]2COCCN12 — 1.8-fold lower, 19100 nM
- O=C1c2c(O)c(=O)ccn2N([C@H]2c3ccccc3COc3cc(C(F)(F)F)ccc32)[C@@H]2COCCN12 — higher, > 50000 nM
- O=C1c2c(O)c(=O)ccn2N([C@H]2c3ccccc3OCc3c2ccc(F)c3F)[C@@H]2COCCN12 — within 1.5-fold, 33000 nM

system: Influenza A virus; assay: Antiviral activity against Influenza A virus H3N2 (A/Aichi/2/68) infected in dog MDCK cells assessed as reduction in cytopathic effect incubated for 2 days; format: functional, organism-based; details: 48 h

Point of comparison: O=C1c2c(O)c(=O)ccn2N([C@H]2c3ccccc3COc3c2ccc(F)c3F)[C@@H]2COCCN12, EC50 5.16 nM. Against it:
- O=C1c2c(O)c(=O)ccn2N([C@H]2c3ccccc3OCc3c(Cl)cccc32)[C@@H]2COCCN12 — 7.7-fold lower, 0.67 nM
- O=C1c2c(O)c(=O)ccn2N([C@@H]2c3ccccc3OCc3c2ccc(F)c3F)[C@@H]2COCCN12 — 3.1-fold lower, 1.68 nM
- O=C1c2c(O)c(=O)ccn2N([C@H]2c3ccccc3COc3cc(C(F)(F)F)ccc32)[C@@H]2COCCN12 — 4.8-fold higher, 24.9 nM
- O=C1c2c(O)c(=O)ccn2N([C@H]2c3ccccc3OCc3c2ccc(F)c3F)[C@@H]2COCCN12 — 2.5-fold lower, 2.08 nM
- O=C1c2c(O)c(=O)ccn2N([C@@H]2c3ccc(F)cc3COc3ccccc32)[C@@H]2COCCN12 — 2.1-fold lower, 2.5 nM

system: not listed separately; assay: Selectivity index, ratio of CC50 for cytotoxicty against MDCK cells to EC50 for antiviral activity against Influenza A virus H3N2 (A/Aichi/2/68) infected in dog MDCK cells; format: toxicity, cell-based; details: read-out: Selectivity Index

Point of comparison: O=C1c2c(O)c(=O)ccn2N([C@H]2c3ccccc3OCc3c2ccc(F)c3F)[C@@H]2COCCN12, selectivity ratio 15900. Against it:
- O=C1c2c(O)c(=O)ccn2N([C@H]2c3ccccc3OCc3c(Cl)cccc32)[C@@H]2COCCN12 — higher, 23200
- O=C1c2c(O)c(=O)ccn2N([C@H]2c3ccccc3COc3c2ccc(F)c3F)[C@@H]2COCCN12 — lower, 6460
- O=C1c2c(O)c(=O)ccn2N([C@@H]2c3ccccc3OCc3c2ccc(F)c3F)[C@@H]2COCCN12 — lower, 11400
- O=C1c2c(O)c(=O)ccn2N([C@H]2c3ccccc3COc3cc(C(F)(F)F)ccc32)[C@@H]2COCCN12 — not separable, > 2010
- O=C1c2c(O)c(=O)ccn2N([C@@H]2c3ccc(F)cc3COc3ccccc32)[C@@H]2COCCN12 — lower, 14100
